Several values for one entry are separate records, joined by “and”; a condition that tells them apart may be missing. Identical values can stand only once.
Tests used:
Type in all cases: functional
[1] = biological target: T1, Follicle-stimulating hormone receptor (Homo sapiens, UniProt P23945); assay: Agonistic activity against human follicle stimulating hormone receptor in CHO-hFSHR-luciferase assay.
T1 sequence (P23945 whole entry): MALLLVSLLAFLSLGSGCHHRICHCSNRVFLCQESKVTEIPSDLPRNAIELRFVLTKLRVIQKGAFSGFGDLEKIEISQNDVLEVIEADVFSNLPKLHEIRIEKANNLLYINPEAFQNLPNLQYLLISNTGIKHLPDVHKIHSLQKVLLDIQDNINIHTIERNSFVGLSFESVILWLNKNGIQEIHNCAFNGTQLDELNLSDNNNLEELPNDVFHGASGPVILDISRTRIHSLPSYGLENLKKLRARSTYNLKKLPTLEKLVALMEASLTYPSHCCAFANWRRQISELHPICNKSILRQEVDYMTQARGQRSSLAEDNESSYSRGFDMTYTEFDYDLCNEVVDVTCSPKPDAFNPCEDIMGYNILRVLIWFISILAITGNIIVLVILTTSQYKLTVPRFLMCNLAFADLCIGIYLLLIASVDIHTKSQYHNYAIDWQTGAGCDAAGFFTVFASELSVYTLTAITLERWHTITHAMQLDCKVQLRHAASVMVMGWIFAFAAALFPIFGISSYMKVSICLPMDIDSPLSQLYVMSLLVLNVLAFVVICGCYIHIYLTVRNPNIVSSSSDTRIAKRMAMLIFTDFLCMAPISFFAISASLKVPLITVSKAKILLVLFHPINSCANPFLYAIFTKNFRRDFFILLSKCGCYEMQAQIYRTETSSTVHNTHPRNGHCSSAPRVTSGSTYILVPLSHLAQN

[2] = biological target: T2, Follicle-stimulating hormone receptor (Homo sapiens) (UniProt P23945); assay: Agonistic efficacy in CHO-hFSHR cell-based cAMP accumulation assay relative to FSH(=100%)
T2 sequence (whole entry): T1 sequence (P23945 whole entry)

[3] = biological target: T1, Follicle-stimulating hormone receptor; assay: Agonistic activity in CHO-hFSHR cell-based cAMP accumulation assay
[4] = biological target: T1, Follicle-stimulating hormone receptor; assay: Agonistic activity in CHO-hFollicle stimulating hormone receptor cell-based cAMP accumulation assay

SMILES | EC50 [1] | Efficacy [2] | EC50 [3] | EC50 [4]
CCCCCCCCN1CC(=O)N(C)[C@@H](Cc2ccc(-c3cc(C)c(OC)c(C)c3)cc2)C1=O | 1200 nM | – | – | –
CCCCCCCCN1C(=O)[C@H](Cc2ccc(-c3cc(OC)c(OC)c(OC)c3)cc2)N(C)C(=O)[C@H]1C | 120 nM | – | – | –
CCCCCCN1CC(=O)N(C)[C@H](Cc2ccc(-c3cc(OC)c(OC)c(OC)c3)cc2)C1=O | > 50000 nM | – | – | –
CCCCCCN1C(=O)[C@H](Cc2ccc(-c3cccc(CN(CCCC)C(C)=O)c3)cc2)N(C)C(=O)[C@@H]1C | 150 nM | – | – | –
CCCCCCCCN1C(=O)[C@H](Cc2ccc(-c3cccc(CN(COC)C(=O)OC)c3)cc2)N(C)C(=O)[C@@H]1C | 1.8 nM | – | – | –
CCCCCCNC(=O)CN1CC(=O)N(CCC)[C@@H](Cc2ccc(-c3cc(OC)c(OC)c(OC)c3)cc2)C1=O | > 20000 nM | – | – | –
CCCCCCCCN1C(=O)[C@H](Cc2ccc(-c3cccc(CN(CCCC)C(=O)OC)c3)cc2)N(C)C(=O)[C@@H]1C | 2.7 nM | 49% | 31 nM | –
CCCCCCCCN1CC(=O)N(C)[C@@H](Cc2ccc(-c3cc(OC)c(OC)c(OC)c3)cc2)C1=O | 400 nM | – | – | –
CCCCCCNC(=O)CN1CC(=O)N[C@@H](Cc2ccc(-c3cc(OC)c(OC)c(OC)c3)cc2)C1=O | > 20000 nM | – | – | –
CCCCCCNC(=O)CN1CC(=O)N(CC)[C@@H](Cc2ccc(-c3cc(OC)c(OC)c(OC)c3)cc2)C1=O | > 20000 nM | – | – | –
CCCCCN1CC(=O)N(C)[C@@H](Cc2ccc(-c3cc(OC)c(OC)c(OC)c3)cc2)C1=O | 9000 nM | – | – | –
CCCCCCCCN1C(=O)[C@@H](Cc2ccc(-c3cc(OC)c(OC)c(OC)c3)cc2)N(C)C(=O)[C@@H]1C | 68 nM | – | – | –
CCCCCCN1CC(=O)N(C)[C@@H](Cc2ccc(-c3cc(OC)c(OC)c(OC)c3)cc2)C1=O | 3000 nM | – | – | –
CCCCCCCCN1C(=O)[C@@H](Cc2ccc(-c3cc(OC)c(OC)c(OC)c3)cc2)N(C)C(=O)[C@H]1C | 1600 nM | – | – | –
CCCCCCN1C(=O)[C@H](Cc2ccc(-c3cccc(CN(CCCC)C(=O)NC)c3)cc2)N(C)C(=O)[C@@H]1C | 7.2 nM | 85% | 9.5 nM | –
CCCCCCCCN1C(=O)[C@H](Cc2ccc(-c3cccc(CN(CCCC)C(C)=O)c3)cc2)N(C)C(=O)[C@@H]1C | 14 nM | 57% | 35 nM | –
CCCCCCCN1CC(=O)N(C)[C@@H](Cc2ccc(-c3cc(OC)c(OC)c(OC)c3)cc2)C1=O | 2300 nM | – | – | –
CCCCCCCCN1C(=O)[C@H](Cc2ccc(-c3cccc(CN(COC)C(C)=O)c3)cc2)N(C)C(=O)[C@@H]1C | 9.7 nM | – | – | –
CCCCCCN1C(=O)[C@H](Cc2ccc(-c3cccc(CN(CCCC)C(=O)OC)c3)cc2)N(C)C(=O)[C@@H]1C | 8.9 nM | – | 48 nM and 59 nM | –
CCCCCCNC(=O)CN1CC(=O)N(C)[C@@H](Cc2ccc(-c3cc(OC)c(OC)c(OC)c3)cc2)C1=O | 3 nM | – | – | –

Next, values leading:

EC50 [1] | Efficacy [2] | EC50 [3] | EC50 [4] | SMILES
1.7 nM | – | – | – | CCCCCNC(=O)CN1CC(=O)N(C)[C@@H](Cc2ccc(-c3cccc(CN(CCCC)C(=O)NC)c3)cc2)C1=O
5000 nM | – | – | – | CCCCCCCCN1CC(=O)N(C)[C@@H](Cc2ccc(-c3cc(OC)cc(OC)c3)cc2)C1=O
25 nM | 54% | – | 32 nM | CCCCCCCN1C(=O)[C@H](Cc2ccc(-c3cc(OC)c(OC)c(OC)c3)cc2)N(C)C(=O)[C@@H]1C
100 nM | – | – | – | CCCCCCN1C(=O)[C@H](Cc2ccc(-c3cc(OC)c(OC)c(OC)c3)cc2)N(C)C(=O)[C@@H]1C
900 nM | – | – | – | CCCCCCCCCN1CC(=O)N(C)[C@@H](Cc2ccc(-c3cc(OC)c(OC)c(OC)c3)cc2)C1=O
1.2 nM | 72% | 7.9 nM | – | CCCCCCCCN1C(=O)[C@H](Cc2ccc(-c3cccc(CN(CCCC)C(=O)NC)c3)cc2)N(C)C(=O)[C@@H]1C
3300 nM | – | – | – | CCCCCCCCN1CC(=O)N(C)[C@@H](Cc2ccc(-c3ccc(OC)c(OC)c3)cc2)C1=O
13 nM | 47% | 32 nM | – | CCCCCCCCN1C(=O)[C@H](Cc2ccc(-c3cc(OC)c(OC)c(OC)c3)cc2)N(C)C(=O)[C@@H]1C
3.6 nM | – | – | – | CCCCCCCCN1C(=O)[C@H](Cc2ccc(-c3cccc(CN(COC)C(=O)NC)c3)cc2)N(C)C(=O)[C@@H]1C

From ChEMBL document CHEMBL1147493, “Small molecule biaryl FSH receptor agonists. Part 2: Lead optimization via parallel synthesis” (Bioorg Med Chem Lett, 2004)
